# Literature values as cited in patent US9597322B2, “Otamixaban for use in the treatment of non-ST elevation acute coronary syndrome in patients planned to undergo coronary artery bypass grafting” (SANOFI, priority 2012, dated 2017).
# Where two headings read alike, the source gives them in different places.
# Legend:
# factor Xa = target: T1, factor Xa (Homo sapiens, UniProt P00742); details: patients with stable coronary artery disease on usual comedication, some with mild renal impairment; Hinder et al. 2006; cited from earlier work
# T1 construct: host or cells: blood of patients (endogenous)
# T1 sequence (P00742 235-488 limits assumed): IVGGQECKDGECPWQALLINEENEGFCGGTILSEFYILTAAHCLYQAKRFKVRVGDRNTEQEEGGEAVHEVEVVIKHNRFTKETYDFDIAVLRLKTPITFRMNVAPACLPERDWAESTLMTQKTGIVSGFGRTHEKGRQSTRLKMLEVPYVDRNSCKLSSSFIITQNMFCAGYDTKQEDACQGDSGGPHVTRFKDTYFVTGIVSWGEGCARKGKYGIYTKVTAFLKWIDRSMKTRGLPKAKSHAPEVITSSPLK
# T1 sequence (P00742 41-179 partner limits assumed): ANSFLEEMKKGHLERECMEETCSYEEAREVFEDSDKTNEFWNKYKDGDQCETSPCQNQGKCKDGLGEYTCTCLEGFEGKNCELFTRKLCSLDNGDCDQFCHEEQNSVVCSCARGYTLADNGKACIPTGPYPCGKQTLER
# thrombosis [1] = details: porcine; cited from earlier work
# thrombosis [2] = details: canine; cited from earlier work
# [3] = test system: prothrombin fragments 1+2; details: highest dose regimen; Cohen et al. 2007; cited from earlier work
# thrombosis [4] = details: rodent; cited from earlier work
# free factor Xa = free factor Xa (Homo sapiens, UniProt P00742); details: direct, independent of antithrombin III; cited from earlier work
# free factor Xa, sequence (P00742 235-488 limits assumed): as the sequence (P00742 235-488 limits assumed) above
# free factor Xa, sequence (P00742 41-179 partner limits assumed): as the sequence (P00742 41-179 partner limits assumed) above
# [5] = target: factor Xa assembled in the prothrombinase complex (Factor Xa, Factor Va, calcium and phospholipid) (Homo sapiens, UniProt P00742); details: direct, independent of antithrombin III; cited from earlier work
# factor Xa assembled in the prothrombinase complex (Factor Xa, Factor Va, calcium and phospholipid), sequence (P00742 235-488 limits assumed): as the sequence (P00742 235-488 limits assumed) above
# factor Xa assembled in the prothrombinase complex (Factor Xa, Factor Va, calcium and phospholipid), sequence (P00742 41-179 partner limits assumed): as the sequence (P00742 41-179 partner limits assumed) above
# factor Xa assembled in the prothrombinase complex (Factor Xa, Factor Va, calcium and phospholipid), sequence (P12259 29-737 partner limits assumed): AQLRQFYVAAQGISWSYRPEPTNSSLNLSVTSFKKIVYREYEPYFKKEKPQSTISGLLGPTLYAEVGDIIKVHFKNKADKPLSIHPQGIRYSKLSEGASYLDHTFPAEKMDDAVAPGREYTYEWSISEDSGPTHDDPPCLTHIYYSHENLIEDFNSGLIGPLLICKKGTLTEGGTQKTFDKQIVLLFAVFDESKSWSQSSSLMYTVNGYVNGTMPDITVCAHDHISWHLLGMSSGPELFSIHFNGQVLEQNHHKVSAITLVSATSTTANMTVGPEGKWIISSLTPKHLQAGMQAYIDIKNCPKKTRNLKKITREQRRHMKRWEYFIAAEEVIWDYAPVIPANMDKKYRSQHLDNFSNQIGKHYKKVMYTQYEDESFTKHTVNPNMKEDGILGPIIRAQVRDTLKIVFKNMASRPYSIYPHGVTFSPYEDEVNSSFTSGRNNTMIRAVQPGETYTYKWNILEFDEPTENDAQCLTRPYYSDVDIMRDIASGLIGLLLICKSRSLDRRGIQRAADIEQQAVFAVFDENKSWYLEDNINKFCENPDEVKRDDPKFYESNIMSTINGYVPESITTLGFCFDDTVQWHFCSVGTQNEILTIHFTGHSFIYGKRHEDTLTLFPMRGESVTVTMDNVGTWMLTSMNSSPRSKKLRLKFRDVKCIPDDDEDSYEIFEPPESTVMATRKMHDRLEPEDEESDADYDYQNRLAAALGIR
# factor Xa assembled in the prothrombinase complex (Factor Xa, Factor Va, calcium and phospholipid), sequence (P12259 1574-2224 partner limits assumed): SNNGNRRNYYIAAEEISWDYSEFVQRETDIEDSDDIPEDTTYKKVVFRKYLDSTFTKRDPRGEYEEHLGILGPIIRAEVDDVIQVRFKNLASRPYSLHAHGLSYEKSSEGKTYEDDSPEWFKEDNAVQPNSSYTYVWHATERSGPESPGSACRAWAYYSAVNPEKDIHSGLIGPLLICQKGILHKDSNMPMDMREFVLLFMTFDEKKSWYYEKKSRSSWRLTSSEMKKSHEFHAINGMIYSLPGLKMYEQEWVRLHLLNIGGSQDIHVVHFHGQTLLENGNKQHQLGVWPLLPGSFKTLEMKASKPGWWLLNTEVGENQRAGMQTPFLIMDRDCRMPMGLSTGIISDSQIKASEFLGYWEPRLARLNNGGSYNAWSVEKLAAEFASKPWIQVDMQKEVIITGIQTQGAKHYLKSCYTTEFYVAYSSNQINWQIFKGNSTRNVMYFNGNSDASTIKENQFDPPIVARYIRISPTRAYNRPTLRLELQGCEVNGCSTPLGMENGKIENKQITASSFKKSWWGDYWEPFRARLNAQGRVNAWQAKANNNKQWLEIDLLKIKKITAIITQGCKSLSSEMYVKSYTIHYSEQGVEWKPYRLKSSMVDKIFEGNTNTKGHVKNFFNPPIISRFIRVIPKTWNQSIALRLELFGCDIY
smiles,measurement,setting,value
"COC(=O)C(Cc1cccc(C(=N)N)c1)[C@@H](C)NC(=O)c1ccc(-c2cc[n+]([O-])cc2)cc1 (mixture of isomers) [Otamixaban, (2R,3R)-2-(3-Carbamimidoyl-benzyl)-3-[4-(1-oxy-pyridin-4-yl)benzoylamino]-butyric acid methyl ester]",factor Xa inhibition in patients,factor Xa,"dose-dependent, rapid direct factor Xa inhibition"
same,efficacy in model of thrombosis,thrombosis [1],highly efficacious
same,efficacy in model of thrombosis,thrombosis [2],highly efficacious
same,reduction of prothrombin fragments 1+2 versus unfractionated heparin,[3],significantly more than unfractionated heparin
same,efficacy in model of thrombosis,thrombosis [4],highly efficacious
same,inhibition of free factor Xa,free factor Xa,inhibited
same,inhibition of factor Xa assembled in the prothrombinase complex,[5],inhibited
